# Patent publication US20240206469A1, “PHOSPHORUS USE EFFICIENCY ENHANCERS AS PLANT GROWTH PROMOTORS” (EUROCHEM ANTWERPEN, priority 2021, published 2024)
# Assays:
# Format in all cases: in vivo, Arabidopsis thaliana
# Arabidopsis [1] = test: Anthocyanin quantification, Arabidopsis 96-well plate; details: low phosphate, 50 μM, 7 days after germination, control = 1
# Method: Col-0 ecotype Arabidopsis seeds were sown in 96-well plates containing 150 μl of low phosphate modMS liquid medium containing 1% of sucrose. Compounds was added in 50 μM concentration (1% DMSO). Eight plants per repeat were collected 7 days after germination and put into a fresh Eppendorf. Extraction and quantification of anthocyanin levels was carried out according to The Plant cell 2013, 25:1641-1656. Anthocyanin levels were quantified by measuring absorption at 530 and 657 nm using a spectrophotometer and normalized to fresh weight input, and expressed relative to the low phosphate control. For pot experiments, the same procedure was followed with one 4-week old plant per sample.
# [2] = tested on: SPX1 phosphate starvation biomarker; test: Chemical activity assessment with Arabidopsis pSPX1::GUS reporter line (GUS stained area)
# Method: All Arabidopsis plant experiments were performed using the Arabidopsis thaliana Columbia-0 background. The Arabidopsis pSPX1::GUS line is described in the Plant Journal 2008, 54: 965-975. For rice, the cultivar Nipponbare was used. For maize, the cultivars DKC 2931 and B104 were used for regular pot experiments and sand-based pot experiments, respectively. For soybean, the cultivar Primus was used. […] The medium was solidified due to the addition of 0.6% Gelrite, unless stated otherwise. In case of vertical plates (root length and root hair measurements), the medium was supplied with 0.5% of sucrose and 1 μM (low phosphate, 1 μM KH2PO4, 9.9 mM KCl), 10 μM (low phosphate 10 μM KH2PO4, 9.9 mM KCl) or 1.25 mM KH2PO4 (high phosphate). Arabidopsis seeds were stratified for 2 days at 4° C. before germination. Seedlings were germinated in climate-controlled growth chambers at 22° C. under continuous light (100 μmol m^−2 s^−1). Husked rice seeds were germinated on wetted Whatman paper for 2 days at 37° C. and then transferred to Sterivent boxes or square Petri dishes with solid medium. Maize and soybean seeds were wetted 24 hours at room temperature prior to sowing in pots.
# For the chemical activity assessment 3 to 8 seeds per well of Arabidopsis pSPX1::GUS line were sown in 96-well plates containing 150 μl of low phosphate modMS liquid medium containing 1% of sucrose. Compounds were added in 50 μM concentration, starting from a 5 mM stock of compounds solved in DMSO. Different chemical substances were separately added to different wells. Per plate, 16 control wells were used, 8 containing only the low phosphate medium and 1% DMSO, and 8 containing high phosphate medium and 1% DMSO. 7 days after germination, plates were scanned using a flatbed scanner (EPSON Expression 11000XL) and analyzed for leaf size. After scanning, the growth medium was replaced by GUS staining solution (see Plant Mol. Biol. Rep. 1994, 12: 37-42 for details) and incubated for 1.5 hours at 37° C. The plates were scanned a second time and analyzed for GUS signal area. Measurements of both leaf area and GUS signal area were conducted by filtering out and measure the green and blue signal, respectively using ImageJ software. If the green leaf area was 50% or less than the control, samples were omitted. Additionally, all results were visually screened for leaf size and GUS signal.
# Arabidopsis [3] = test: Arabidopsis pot experiment (rosette size, soil phosphate, anthocyanin)
# Method: Regular Arabidopsis, soybean and maize pot experiments used an unfertilized potting soil, which was supplemented at the start of the experiment with 50 ml H2O containing 0.25 g/l NH4NO3 and 0.44 g/l (high phosphate) or no (maize and soybean) or 0.11 g/l KH2PO (Arabidopsis) for low phosphate conditions. For the sand-based maize pot experiment, sand was supplemented with 50 ml H2O containing 0.25 g/l NH4NO3 and 0.38 g/l (high phosphate) or 0.02 g/l (low phosphate) KH2PO4. Potassium was balanced via addition of KCl. Compound concentration was 10 μM, calculated based on the total water content after watering, and was added at the start of the experiment (Arabidopsis) or once a week (maize). Indexed chlorophyll contents were received via a SPAD 502 Plus Chlorophyll Meter. All parameters in the sand experiment, except the rate of leaf 4 (measured the first 4 days after emergence), were measured 19 days after sowing. Measurements in the pot experiments with potting soil were done after 4 weeks of growth, except for leaf 5, which was measured at 26 days. One long-term maize pot experiment was conducted with the DKC 2931 (2.5 months) and B104 (3 months) cultivars on the PHENOVISION phenotyping platform as described in Frontiers in Plant Science 2021, 12: 640914, except that an unfertilized potting soil was used and that plants were fertilized with a low-phosphate Hoagland solution. The 2.5× overconcentrated low-phosphate Hoagland solution contained 0.034 g/l KH2PO and 200 mL of this solution was applied twice a week. 1.4 mL of a 10 mM compound solution was added each two weeks to each pot, corresponding to 9.6 mg/g nutrients. 13 plants per condition were used. During the experiment, pictures were taken twice a week for each plants from 6 different angles and the top. […] Extraction and quantification of anthocyanin levels was carried out according to The Plant cell 2013, 25:1641-1656. Anthocyanin levels were quantified by measuring absorption at 530 and 657 nm using a spectrophotometer and normalized to fresh weight input, and expressed relative to the low phosphate control. […]
compound,measurement,setting,value
"CC1CN(CC(=O)c2c(N)n(C)c(=O)n(C)c2=O)c2ccccc2O1 (stereo not drawn) [Compound 8, 6-amino-1,3-dimethyl-5-[2-(2-methyl-2,3-dihydro-1,4-benzoxazin-4-yl)acetyl]pyrimidine-2,4-dione]",Relative anthocyanin level,Arabidopsis [1],0.6
same,Suppression of the SPX1 biomarker (GUS staining),"[2]; 7 days of growth in low phosphate, confirmed in two experimental repeats",practically completely suppressed the SPX1 biomarker
same,GUS (SPX1) stained area normalized to the number of seeds,"[2]; low phosphate, 50 μM, 7 days after germination, compare with low phosphate controls of same plate (Table 5 c3)",26 pixels
same,Relative anthocyanin level,"Arabidopsis [3]; 4-week old plant, relative to low phosphate control = 1",0.6
same,Phosphate level in soil (relative value),"Arabidopsis [3]; after 4 weeks of growth, relative to low phosphate control = 1",0.8
same,Rosette size,"Arabidopsis [3]; low phosphate, 10 μM, 4 weeks, control 17",25 cm^2
